Results as given in patent publication US7803903B2, “Protein-binding doxorubicin peptide derivatives” (priority 2003, dated 2010).

System: A375 melanoma xenografts
Experiment: tumor growth of subcutaneously growing A375 melanoma xenografts
Type: in vivo, nacked mice
Conditions: i.v.; doxorubicin 2×8 mg/kg on days 8 and 15; FIG. 5
Procedure: Animals: nacked mice; stock solution of doxorubicin (2 mg/ml); stock solution of 1:6 mg/ml in 10 mM sodium phosphate, 5% D-glucose (pH 6.4), control (buffer): glucose phosphate buffer (10 mM sodium phosphate, 5% D-glucose—pH 6.4) on days 8 and 15.

Structure (SMILES): COc1cccc2c1C(=O)c1c(O)c3c(c(O)c1C2=O)C[C@@](O)(C(=O)CO)C[C@@H]3O[C@H]1C[C@H](N)[C@H](O)[C@H](C)O1 [Doxorubicin, doxorubicin]
- relative tumor volume compared to treatment with the derivative according to the invention: approximately three times larger tumor volume
